According to patent publication US4990531A, “Derivatives of 1-arylsulphonyl-2-pyrrolidinone and their use as medicaments” (Roussel Uclaf, priority 1988, dated 1991):
Like-named read-outs stand apart in the source and are kept apart here.

Key:
adrenoreceptor alpha 1 = assay: Affinity for other receptors: adrenoreceptor alpha 1; assay type: binding; details: negligible affinity
[1] = target: serotonine 5 HT2 receptor (Homo sapiens, UniProt P28223); assay: Affinity for other receptors: serotonine 5 HT2; assay type: binding; details: negligible affinity
Chain of serotonine 5 HT2 receptor (P28223 whole entry): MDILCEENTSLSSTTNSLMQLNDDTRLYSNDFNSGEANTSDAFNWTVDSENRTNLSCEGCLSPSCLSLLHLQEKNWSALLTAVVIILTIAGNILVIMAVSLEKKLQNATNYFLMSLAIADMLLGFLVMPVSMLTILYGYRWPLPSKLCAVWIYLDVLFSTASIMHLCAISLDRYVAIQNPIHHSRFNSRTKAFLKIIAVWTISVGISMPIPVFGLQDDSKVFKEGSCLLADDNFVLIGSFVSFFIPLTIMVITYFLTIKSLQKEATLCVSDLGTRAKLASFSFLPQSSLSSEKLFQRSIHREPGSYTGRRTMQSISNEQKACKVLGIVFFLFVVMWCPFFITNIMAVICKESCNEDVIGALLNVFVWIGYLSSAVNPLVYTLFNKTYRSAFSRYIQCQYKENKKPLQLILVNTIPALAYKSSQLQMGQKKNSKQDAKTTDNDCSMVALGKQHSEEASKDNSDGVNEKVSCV

adrenoreceptor alpha 2 = assay: Affinity for other receptors: adrenoreceptor alpha 2; assay type: binding; details: negligible affinity
isolated ileum = assay: Agonist action on isolated guinea-pig ileum; details: negative logarithm of the dose producing 50% of maximum effect
Protocol: (§1) The interaction of the compounds with various receptors was evaluated on the isolated ileum of a guinea-pig according to the following method.
(§2) Segments of the ileum of guinea-pigs of 2.5-3 cm were washed and immediately suspended in a bath containing 10 ml of Tyrode's solution at 37° C. and aerated with a mixture of oxygen (95%) and carbon dioxide (5%). After a stabilization period of at least 30 minutes contractions were recorded, while the preparation was maintained under constant tension of 1 g, by means of a detector connected to a polygraph. The agonistic action was evaluated by leaving the compound in contact with the isolated tissue for a period necessary to show the maximum […]; then it was washed with the Tyrode's solution. The following dose was added only after the preparation had returned to its base line. Arecoline was used as a reference product. The antagonist action was evaluated on the contractions induced by acetylcholine (1×10^-6 M), histamine (1×10^-5 M), serotonine (1×10^-6 M) and barium chloride (2×10^-4 M). […] The contact time before adding the agonist was one minute.
(§3) For each compound the does response curves are obtained with 4 to 6 different concentrations and 3 to 5 independent tests. The agonist activity is expressed by pD2 (negative logarithm of the dose which produces 50% of the maximum effect).

[2] = system: contractions induced by histamine, isolated ileum; assay: Antagonism of histamine-induced contractions, isolated guinea-pig ileum; details: histamine 1×10^-5 M; contact time one minute; read-out: Antagonism with various agents (IC50): Istam.
Protocol: as §1, §2, §3

opiated receptor mu = opiated receptor mu (Homo sapiens, UniProt P35372); assay: Affinity for other receptors: opiated receptor mu; assay type: binding; details: negligible affinity
Chain of opiated receptor mu (P35372 whole entry): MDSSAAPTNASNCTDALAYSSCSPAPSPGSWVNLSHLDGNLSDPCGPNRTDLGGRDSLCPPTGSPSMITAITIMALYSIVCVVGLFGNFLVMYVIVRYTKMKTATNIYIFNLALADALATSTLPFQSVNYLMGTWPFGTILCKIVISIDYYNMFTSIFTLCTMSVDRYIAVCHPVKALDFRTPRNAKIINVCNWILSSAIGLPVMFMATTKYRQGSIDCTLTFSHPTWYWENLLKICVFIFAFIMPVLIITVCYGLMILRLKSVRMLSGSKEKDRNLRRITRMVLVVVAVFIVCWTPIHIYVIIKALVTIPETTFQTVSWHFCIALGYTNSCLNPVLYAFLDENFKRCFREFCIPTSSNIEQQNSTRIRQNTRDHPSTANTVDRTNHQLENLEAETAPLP

[3] = target: T1, muscarine receptors, involved in the contractions of the colon (Rattus norvegicus, UniProt P08483); assay: Antagonist affinity and type of antagonism (Schild), isolated colon of rat; details: for "Slope" of Schild plot, isolated colon of rat / Kb: cumulative acetylcholine, Schild's method, contact 5 min; for Kb: read-out: pA2, isolated colon of rat (converted); for displacement of the dose-response curve of acetylcholine: isolated colon of rat, in words
T1 construct: segments of the colon of rats of about 2.5 cm; from tissue; host or cells: isolated rat colon segments
T1 sequence (P08483 whole entry): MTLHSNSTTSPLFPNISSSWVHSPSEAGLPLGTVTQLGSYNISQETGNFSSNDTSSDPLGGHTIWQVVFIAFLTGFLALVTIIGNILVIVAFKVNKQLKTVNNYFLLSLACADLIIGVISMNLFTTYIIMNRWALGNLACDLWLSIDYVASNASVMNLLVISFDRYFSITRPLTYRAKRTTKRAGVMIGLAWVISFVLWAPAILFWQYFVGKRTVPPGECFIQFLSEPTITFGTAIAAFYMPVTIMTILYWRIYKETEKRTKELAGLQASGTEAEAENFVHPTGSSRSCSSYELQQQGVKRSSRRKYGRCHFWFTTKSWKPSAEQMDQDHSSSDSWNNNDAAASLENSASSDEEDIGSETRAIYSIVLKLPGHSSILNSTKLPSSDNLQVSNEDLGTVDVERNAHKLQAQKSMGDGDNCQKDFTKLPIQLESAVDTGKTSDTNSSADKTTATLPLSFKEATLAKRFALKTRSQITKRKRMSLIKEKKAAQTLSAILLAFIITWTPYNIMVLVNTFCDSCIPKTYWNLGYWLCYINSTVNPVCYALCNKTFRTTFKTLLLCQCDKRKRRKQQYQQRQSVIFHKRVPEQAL
Protocol: (§4) The following method was used: segments of the colon of rats of about 2.5 cm are washed and suspended in an insulated bath containing 10 ml of a solution of De Jalon having the following composition: (mM): NaCl 154; KCl 5.7; CaCl2 0.27; NaHCO3 5.9 and glucose 2.5. The temperature of the bath is maintained at 32° C. In these conditions, while maintaining the preparation under a tension of 1 g, the spontaneous activity of the colon is minimal. After a stabilization period of at least 30 minutes, the tension variations are recorded using an isometric transducer connected to a recorder. A series of tests was carried out to evaluate the antagonist activity in relation to the contractions induced by a maximum dose of acetylcholine. (3×10^-6 M).
For each compound the dose-response curves are obtained with 4 to 6 different concentrations and 3 to 5 independent tests.
In a second series of tests the acetylcholine is added to the bath in cumulative doses according to the van Rossum method (J. M. van Rossum, Arch, Int. Pharmacodyn. 143, 299, 1963). Having obtained two equal and consecutive dose-response curves with acetylcholine, a third dose-responsecurve is obtained in the presence of the compound (contact time of compound before acetylcholine=5 min.) Each compound was tested with 3-4 different concentrations
The antagonist affinity and the type of antagonism (competitive, non-competitive) for the muscarine receptors was calculated according to Schild's method (H. D. Schild, Brit. J. Pharmacol. 2, 189, 1947).

dopamine receptor = assay: Affinity for other receptors: dopamine; assay type: binding; details: negligible affinity
[4] = system: contractions induced by acetylcholine, isolated ileum; assay: Antagonism of acetylcholine-induced contractions, isolated guinea-pig ileum; details: acetylcholine 1×10^-6 M; contact time one minute; read-out: Antagonism with various agents (IC50): Ach.
Protocol: as §1, §2, §3

[5] = system: contractions induced by acetylcholine, isolated colon; assay: Antagonism of acetylcholine-induced contractions, isolated colon of rat; details: acetylcholine 3×10^-6 M; contact 3 minutes
Protocol: The remarkable antagonist action of the compounds of the invention was confirmed on the isolated colon of rats. In this test it was established whether the antagonist activity was of competitive or non-competitive type.
as §4
The compounds are left in contact with the preparation for 3 minutes before adding acetylcholine.
Atropine was used as a reference product. For each compound the dose-response curves are obtained with 4 to 6 different concentrations and 3 to 5 independent tests.

[6] = system: cholinomimetic effects induced by carbachol; assay: In vivo anticholinergic action: inhibition of carbachol-induced cholinomimetic effects; parameters: species or system CD1 male mice; details: i.p.; for ED50 / ED (1 degree C): Mus musculus, ip, 0.5 h, carbachol 1 mg/kg s.c. 30 min later; for ED (1 degree C): rectal temperature, read-out: Body Temperature: dose able to increase by 1° C. the hypothermic effect induced by carbachol; for selective anticholinergic action in vivo: mice, in words
Protocol: The anticholinergic activity of the compounds was determined by evaluating the capacity to inhibit cholinomimetic effects induced by carbachol. Atropine sulphate was used as reference product.
CD1 male mice are used weighing 25 to 30 g. They are divided into groups of 5 animals and treated by intraperitoneal route, in scaled doses, with the products or with 0.25% of Methocel for the controls. 10 animals are used for each dose. 30 minutes after the administration of the compounds, the mice are subcutaneously injected with 1 mg/kg of carbachol, dissolved in physiological serum.
Each animal was examined 30 minutes after the injection of carbachol to evaluate the presence of diarrhea, salivation and watering of the eyes; the body temperature was also measured using a thermocouple inserted 1.5 cm into the rectum.
For each compound, there was determined, and recorded in the following table, the dose able to inhibit, in 50% of the animals, the appearance of peripheral cholinomimetic symptoms induced by carbachol, and to increase by 1° C. the hypothermic effect induced by the cholinergic agent.

adrenoreceptor beta 2 = adrenoreceptor beta 2 (Homo sapiens, UniProt P07550); assay: Affinity for other receptors: adrenoreceptor beta 2; assay type: binding; details: negligible affinity
Chain of adrenoreceptor beta 2 (P07550 whole entry): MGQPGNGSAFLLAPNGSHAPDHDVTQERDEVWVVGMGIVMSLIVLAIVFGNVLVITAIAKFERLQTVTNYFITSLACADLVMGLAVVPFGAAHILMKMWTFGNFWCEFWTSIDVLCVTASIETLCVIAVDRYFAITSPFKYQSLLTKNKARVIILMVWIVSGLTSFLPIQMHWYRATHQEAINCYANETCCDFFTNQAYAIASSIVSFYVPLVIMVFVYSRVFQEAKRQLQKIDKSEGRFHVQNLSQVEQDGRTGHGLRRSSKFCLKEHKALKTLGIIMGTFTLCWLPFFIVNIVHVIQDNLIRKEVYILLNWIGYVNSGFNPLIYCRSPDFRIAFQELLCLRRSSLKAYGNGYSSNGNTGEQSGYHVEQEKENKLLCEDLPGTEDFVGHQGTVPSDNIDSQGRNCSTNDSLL

[7] = system: contractions induced by barium chloride, isolated ileum; assay: Antagonism of barium chloride-induced contractions, isolated guinea-pig ileum; details: barium chloride 2×10^-4 M; contact time one minute; read-out: Antagonism with various agents (IC50): BaCL2
Protocol: as §1, §2, §3

adrenoreceptor beta 1 = adrenoreceptor beta 1 (Homo sapiens, UniProt P08588); assay: Affinity for other receptors: adrenoreceptor beta 1; assay type: binding; details: negligible affinity
Chain of adrenoreceptor beta 1 (P08588 whole entry): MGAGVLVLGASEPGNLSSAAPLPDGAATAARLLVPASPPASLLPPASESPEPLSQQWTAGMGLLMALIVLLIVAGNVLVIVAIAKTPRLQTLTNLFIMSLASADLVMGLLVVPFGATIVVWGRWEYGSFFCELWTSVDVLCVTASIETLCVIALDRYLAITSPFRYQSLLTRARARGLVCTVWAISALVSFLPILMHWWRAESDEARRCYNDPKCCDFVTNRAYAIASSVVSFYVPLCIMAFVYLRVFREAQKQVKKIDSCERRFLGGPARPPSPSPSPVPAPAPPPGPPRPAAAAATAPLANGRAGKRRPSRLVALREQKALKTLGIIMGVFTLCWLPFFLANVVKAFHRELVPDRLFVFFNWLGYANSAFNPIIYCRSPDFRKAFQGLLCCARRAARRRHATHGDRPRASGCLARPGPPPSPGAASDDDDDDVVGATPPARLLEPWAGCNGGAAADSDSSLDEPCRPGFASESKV

[8] = target: serotonine 5 HT1 receptor; assay: Affinity for other receptors: serotonine 5 HT1; assay type: binding; details: negligible affinity
[9] = read-out: dose able to inhibit, in 50% of the animals, Diarrhea
[10] = read-out: dose able to inhibit, in 50% of the animals, Salivation
[11] = read-out: dose able to inhibit, in 50% of the animals, Watering of Eyes

Structure (SMILES)	IC50 (adrenoreceptor alpha 1)	IC50 [1]	IC50 (adrenoreceptor alpha 2)	Agonist Action (pD2) (isolated ileum)	IC50 [2]	IC50 (opiated receptor mu)	"Slope" of Schild plot, isolated colon of rat [3]	Kb [3]	displacement of the dose-response curve of acetylcholine [3]	IC50 (dopamine receptor)	IC50 [4]	IC50 [5]	ED50 [6, 9]	ED50 [6, 10]	ED50 [6, 11]	ED (1 degree C) [6]	selective anticholinergic action in vivo [6]	IC50 (adrenoreceptor beta 2)	IC50 [7]	IC50 (adrenoreceptor beta 1)	further results
CCN(CC)c1ccc(S(=O)(=O)N2CCCC2=O)cc1 [Example 2, 1-[4-(diethylamino)benzenesulphonyl]-2-pyrrolidinone]	5 to 10 µM	5 to 10 µM	5 to 10 µM	< 4	> 100 µM	5 to 10 µM	1.08	0.0447 µM	parallel displacement towards the right of the dose-response curve of acetyl-choline without reducing the maximum contraction	5 to 10 µM	0.062 µM	0.16 µM	7 mg/kg	> 50 mg/kg	> 50 mg/kg	> 50 mg/kg	selective anticholinergic action on the intestinal musculature	5 to 10 µM	6 µM	5 to 10 µM	IC50 [8]: 5 to 10 µM
CC(C)(C)c1ccc(S(=O)(=O)N2CCCC2=O)cc1 [Example 1, 1-(4-tert-butylbenzenesulphonyl)-2-pyrrolidinone]	5 to 10 µM	5 to 10 µM	5 to 10 µM	< 4	> 100 µM	5 to 10 µM	0.89	0.017 µM	parallel displacement towards the right of the dose-response curve of acetyl-choline without reducing the maximum contraction	5 to 10 µM	0.064 µM	0.28 µM	7 mg/kg	10 mg/kg	> 50 mg/kg	50 mg/kg	selective anticholinergic action on the intestinal musculature	5 to 10 µM	16 µM	5 to 10 µM	IC50 [8]: 5 to 10 µM
